Data published in patent US20210220356A1, “DIHYDROPYRIMIDINE DERIVATIVES AND USES THEREOF IN THE TREATMENT OF HBV INFECTION OR OF HBV-INDUCED DISEASES” (Janssen Sciences Ireland Unlimited Company, priority 2018, published 2021).
Where two headings read alike, the source gives them in different places.

What was measured:
HBV = HBV inhibitory activity in HepG2.2.15 cells (HBV DNA in culture medium by q-PCR); type: cell-based; conditions: HepG2.2.15 cells, 40,000 cells/well, 6 days of compound treatment, HBV DNA in culture medium by q-PCR, highest concentration 10 uM, read-out: EC50
Experimental: (§1) • HepG2.2.15 (the HepG2.2.15 cell line can be produced by transfection of the HepG2 cell line as described in Sells, Chen, and Acs 1987 (Proc. Natl. Acad. Sci. USA 84: 1005-1009), and the HepG2 cell line is available from ATCC® under number HB-8065™)
(§2) Seed the cell HepG2.2.15 cells into 96-well plate in 2% FBS culture medium at the density of 40,000 cells/well and 5,000 cells/well for HBV inhibitory activity and cytotoxicity determination, respectively. After seeding, incubate the cell plates at 37° C., 5% CO2 overnight. The next day, medium containing compounds is added to the cell to treat the cells for 6 days with medium refreshed once in the middle of the treatment. 8 dose points with 3 folds dilution of each compound were adopted and the highest concentration of the compounds is 10 uM and 100 uM for HBV inhibitory activity and cytotoxicity determination, respectively.
The HBV DAN change in the cell culture medium induced by the compounds is measured by q-PCR method. Briefly, the HBV DNA in the culture medium is extracted using QIAamp 96 DNA Blood Kit according to the manual and then quantified by q-PCR using the primers and probe in the table below.
(§3) EC50 and CC50 values are calculated by the GRAPHPAD PRISM software.

HepG2.2.15 cells = test: Cytotoxicity determination in HepG2.2.15 cells (CCK-8); type: cell-based; conditions: HepG2.2.15 cells, 5,000 cells/well, 6 days of compound treatment, CCK-8 absorbance 450 nm, highest concentration 100 uM
Experimental: as §1, §2
After 6 days of compounds treatment, add 20 μl CCK-8 reagents to each well of cytotoxicity assay plates, incubate the plate at 37° C., 5% CO2 for 2.5 h and measure the absorbance at 450 nm wavelength, at the same time read the absorbance at 630 nm wavelength as reference.
as §3

SMILES	EC50 (HBV)	CC50 (HepG2.2.15 cells)	EC50 (HBV; Hepatitis B virus, HepG2.2.15, 144 h)
COC(=O)C1=C(C2CCc3nc([C@H]4CC[C@H](C(=O)O)CC4)oc3C2)NC(c2nccs2)=NC1c1ccc(F)c(F)c1Cl (single isomer, unassigned) [Compound 86d, (trans)-4-(6-(6-(2-chloro-3,4-difluorophenyl)-5-(methoxycarbonyl)-2-(thiazol-2-yl)-3,6-dihydropyrimidin-4-yl)-4,5,6,7-tetrahydrobenzo[d]oxazol-2-yl)cyclohexanecarboxylic acid]	0.0614 µM	4.3 µM	–
COC(=O)C1=C(C2CCc3nc([C@H]4CC[C@H](C(=O)O)CC4)oc3C2)NC(c2nccs2)=NC1c1ccc(F)c(F)c1Cl (single isomer, unassigned) [Compound 86b, (trans)-4-(6-(6-(2-chloro-3,4-difluorophenyl)-5-(methoxycarbonyl)-2-(thiazol-2-yl)-3,6-dihydropyrimidin-4-yl)-4,5,6,7-tetrahydrobenzo[d]oxazol-2-yl)cyclohexanecarboxylic acid]	–	8.7 µM	0.064 µM
CCOC(=O)C1=C(C2CCc3nc(CCC(=O)O)sc3C2)NC(c2nccs2)=NC1c1ccc(F)c(F)c1Cl (single isomer, unassigned) [Compound 60c, 3-(6-(6-(2-Chloro-3,4-difluorophenyl)-5-(ethoxycarbonyl)-2-(thiazol-2-yl)-3,6-dihydropyrimidin-4-yl)-4,5,6,7-tetrahydrobenzo[d]thiazol-2-yl)propanoic acid]	0.0135 µM	5.5 µM	–
CCOC(=O)C1=C(C2CCc3nn(CCC(=O)O)cc3C2)NC(c2nccs2)=NC1c1cccc(F)c1Br (single isomer, unassigned) [Compound 42d, 3-(5-(6-(2-bromo-3-fluorophenyl)-5-(ethoxycarbonyl)-2-(thiazol-2-yl)-3,6-dihydropyrimidin-4-yl)-4,5,6,7-tetrahydro-2H-indazol-2-yl)propanoic acid]	0.0242 µM	12.7 µM	–
COC(=O)C1=C(C2CCc3[nH]ncc3C2)NC(c2nccs2)=NC1c1ccc(F)c(F)c1Cl (single isomer, unassigned) [Compound 65b, Methyl 4-(2-chloro-3,4-difluorophenyl)-6-(4,5,6,7-tetrahydro-1H-indazol-5-yl)-2-(thiazol-2-yl)-1,4-dihydropyrimidine-5-carboxylate]	2.67 µM	6.3 µM	–
CCOC(=O)C1=C(C2CCc3nn(CC(C)(C)C(=O)O)cc3C2)NC(c2nccs2)=NC1c1ccc(F)c(F)c1Cl (single isomer, unassigned) [Compound 53c, 3-(5-(6-(2-Chloro-3,4-difluorophenyl)-5-(ethoxycarbonyl)-2-(thiazol-2-yl)-3,6-dihydropyrimidin-4-yl)-4,5,6,7-tetrahydro-2H-indazol-2-yl)-2,2-dimethylpropanoic acid]	< 0.0046 µM	10.9 µM	–
COC(=O)C1=C(C2CCc3nc([C@H]4C[C@H](C(=O)O)C4)oc3C2)NC(c2nccs2)=NC1c1ccc(F)c(F)c1Cl (single isomer, unassigned) [Compound 72c, (trans)-3-(6-(6-(2-Chloro-3,4-difluorophenyl)-5-(methoxycarbonyl)-2-(thiazol-2-yl)-3,6-dihydropyrimidin-4-yl)-4,5,6,7-tetrahydrobenzo[d]oxazol-2-yl)cyclobutanecarboxylic acid]	0.0902 µM	8.7 µM	–
CCOC(=O)C1=C(C2CCc3nn(CCC(=O)O)cc3C2)NC(c2nccs2)=NC1c1ccc(F)c(F)c1C (single isomer, unassigned) [Compound 35c, 3-(5-(6-(3,4-Difluoro-2-methylphenyl)-5-(ethoxycarbonyl)-2-(thiazol-2-yl)-3,6-dihydropyrimidin-4-yl)-4,5,6,7-tetrahydro-2H-indazol-2-yl)propanoic acid]	< 0.0046 µM	14.4 µM	–
COC(=O)C1=C(C2CCc3nn(C(C)(C)CC(=O)O)cc3C2)NC(c2nccs2)=NC1c1ccc(F)c(F)c1Cl (single isomer, unassigned) [Compound 82c, 3-(5-(-6-(2-chloro-3,4-difluorophenyl)-5-(methoxycarbonyl)-2-(thiazol-2-yl)-3,6-dihydropyrimidin-4-yl)-4,5,6,7-tetrahydro-2H-indazol-2-yl)-3-methylbutanoic acid]	0.0065 µM	15.1 µM	–
COC(=O)C1=C(C2CCc3nn(CCCC(=O)O)cc3C2)NC(c2nccs2)=NC1c1ccc(F)c(F)c1Cl (single isomer, unassigned) [Compound 74c, 4-(5-(6-(2-chloro-3,4-difluorophenyl)-5-(methoxycarbonyl)-2-(thiazol-2-yl)-3,6-dihydropyrimidin-4-yl)-4,5,6,7-tetrahydro-2H-indazol-2-yl)butanoic acid]	0.0091 µM	18.2 µM	–
CCOC(=O)C1=C(C2CCc3nn(CCC(=O)O)cc3C2)NC(c2nccs2)=NC1c1ccc(F)c(F)c1Br (single isomer, unassigned) [Compound 36b, 3-(5-(6-(2-Bromo-3,4-difluorophenyl)-5-(ethoxycarbonyl)-2-(thiazol-2-yl)-3,6-dihydropyrimidin-4-yl)-4,5,6,7-tetrahydro-2H-indazol-2-yl)propanoic acid]	0.0965 µM	11.7 µM	–
CCOC(=O)C1=C(C2CCc3cn(CCC(=O)O)nc3C2)NC(c2nccs2)=NC1c1ccc(F)c(F)c1Cl (single isomer, unassigned) [Compound 61c, 3-(6-(6-(2-Chloro-3,4-difluorophenyl)-5-(ethoxycarbonyl)-2-(thiazol-2-yl)-3,6-dihydropyrimidin-4-yl)-4,5,6,7-tetrahydro-2H-indazol-2-yl)propanoic acid]	0.125 µM	29 µM	–
CCOC(=O)C1=C(C2CCc3nn(CCC(=O)O)cc3C2)NC(c2nccs2)=NC1c1cccc(F)c1C (single isomer, unassigned) [Compound 41b, 3-(5-(5-(Ethoxycarbonyl)-6-(3-fluoro-2-methylphenyl)-2-(thiazol-2-yl)-3,6-dihydropyrimidin-4-yl)-4,5,6,7-tetrahydro-2H-indazol-2-yl)propanoic acid]	0.292 µM	6.6 µM	–
CCOC(=O)C1=C(C2CCc3nn(CCC(=O)O)cc3C2)NC(c2nccs2)=NC1c1cccc(F)c1Cl (single isomer, unassigned) [Compound 40c, 3-(5-(6-(2-Chloro-3-fluorophenyl)-5-(ethoxycarbonyl)-2-(thiazol-2-yl)-3,6-dihydropyrimidin-4-yl)-4,5,6,7-tetrahydro-2H-indazol-2-yl)propanoic acid]	0.0331 µM	12.5 µM	–
CCOC(=O)C1=C(C2CCc3nn(CC(C)(C)C(=O)O)cc3C2)NC(c2nccs2)=NC1c1ccc(F)c(F)c1Cl (single isomer, unassigned) [Compound 53b, 3-(5-(6-(2-Chloro-3,4-difluorophenyl)-5-(ethoxycarbonyl)-2-(thiazol-2-yl)-3,6-dihydropyrimidin-4-yl)-4,5,6,7-tetrahydro-2H-indazol-2-yl)-2,2-dimethylpropanoic acid]	0.104 µM	11.9 µM	–
COC(=O)C1=C(C2CCc3nn(CCC(=O)O)cc3C2)NC(c2nccs2)=NC1c1ccc(F)cc1Br (single isomer, unassigned) [Compound 48d, 3-(5-(6-(2-Bromo-4-fluorophenyl)-5-(methoxycarbonyl)-2-(thiazol-2-yl)-3,6-dihydropyrimidin-4-yl)-4,5,6,7-tetrahydro-2H-indazol-2-yl)propanoic acid]	0.03 µM	34.3 µM	–
CCOC(=O)C1=C(C2CCc3nn(CCC(=O)O)cc3C2)NC(c2ncc(F)cc2F)=NC1c1ccc(F)c(F)c1Cl (single isomer, unassigned) [Compound 43c, 3-(5-(6-(2-Chloro-3,4-difluorophenyl)-2-(3,5-difluoropyridin-2-yl)-5-(ethoxycarbonyl)-3,6-dihydropyrimidin-4-yl)-4,5,6,7-tetrahydro-2H-indazol-2-yl)propanoic acid]	0.0059 µM	29.9 µM	–
COC(=O)C1=C(C2CCc3nn(CCC(=O)O)cc3C2)NC(c2nccs2)=NC1c1cccc(F)c1Br (single isomer, unassigned) [Compound 45c, 3-(5-(6-(2-Bromo-3-fluorophenyl)-5-(methoxycarbonyl)-2-(thiazol-2-yl)-3,6-dihydropyrimidin-4-yl)-4,5,6,7-tetrahydro-2H-indazol-2-yl)propanoic acid]	0.0473 µM	32.2 µM	–
CCOC(=O)C1=C(C2CCc3nn(CCC(=O)O)cc3C2)NC(c2nccs2)=NC1c1ccc(F)cc1C (single isomer, unassigned) [Compound 38b, 3-(5-(5-(Ethoxycarbonyl)-6-(4-fluoro-2-methylphenyl)-2-(thiazol-2-yl)-3,6-dihydropyrimidin-4-yl)-4,5,6,7-tetrahydro-2H-indazol-2-yl)propanoic acid]	0.667 µM	22.9 µM	–
